Source: publication PMC8086025, “A benzopyran with antiarrhythmic activity is an inhibitor of Kir3.1-containing potassium channels” (The Journal of Biological Chemistry, 2021)

Target: Kv4.3 (Homo sapiens, UniProt Q9UK17)
Assay: Cloned cardiac ion channel patch clamp, Kv4.3
Type: cell-based
Method: For the data shown in Table S6, HEK293 cells expressing Kir3.1/4, Kir6.2/SUR2A (provided by Dr Andrew Tinker), Kir3.4, Kir2.1, and CHO cell lines stably expressing hERG KV1.5, KV4.3, NaV1.5 were maintained in media containing 10% FCS and appropriate selection antibiotic. Cells were grown either in suspension or in T-flasks and routinely passaged. Cells for patch clamping experiments were plated onto glass cover slips prior to use. Cells for automated patch clamping experiments were freshly prepared on each experimental day.
Standard giga-seal whole-cell patch-clamp techniques were performed at room temperature using glass pipettes (2–5 MΩ). HEKA EPC9/10 amplifiers and Pulse software were used for data acquisition. Series resistance was compensated by >70%. Experimental solutions are given under Supporting information. […]
Ionic current recordings were analyzed using HEKA software. […]
Inhibition of current (or leak-subtracted current) was calculated from steady-state current recorded in the absence (IControl) and presence of test-article (IIntervention). […]
Concentration-response data were fitted with a sigmoidal function of the form above, where YMin and YMax represent maximum and minimum current inhibition which were constrained to 100 and 0 respectively and x is the Log[DRUG (M)] based on GraphPad Prism analysis. % inhibition was calculated as in Equation 1. […]

Chain of Kv4.3 (Q9UK17 whole entry): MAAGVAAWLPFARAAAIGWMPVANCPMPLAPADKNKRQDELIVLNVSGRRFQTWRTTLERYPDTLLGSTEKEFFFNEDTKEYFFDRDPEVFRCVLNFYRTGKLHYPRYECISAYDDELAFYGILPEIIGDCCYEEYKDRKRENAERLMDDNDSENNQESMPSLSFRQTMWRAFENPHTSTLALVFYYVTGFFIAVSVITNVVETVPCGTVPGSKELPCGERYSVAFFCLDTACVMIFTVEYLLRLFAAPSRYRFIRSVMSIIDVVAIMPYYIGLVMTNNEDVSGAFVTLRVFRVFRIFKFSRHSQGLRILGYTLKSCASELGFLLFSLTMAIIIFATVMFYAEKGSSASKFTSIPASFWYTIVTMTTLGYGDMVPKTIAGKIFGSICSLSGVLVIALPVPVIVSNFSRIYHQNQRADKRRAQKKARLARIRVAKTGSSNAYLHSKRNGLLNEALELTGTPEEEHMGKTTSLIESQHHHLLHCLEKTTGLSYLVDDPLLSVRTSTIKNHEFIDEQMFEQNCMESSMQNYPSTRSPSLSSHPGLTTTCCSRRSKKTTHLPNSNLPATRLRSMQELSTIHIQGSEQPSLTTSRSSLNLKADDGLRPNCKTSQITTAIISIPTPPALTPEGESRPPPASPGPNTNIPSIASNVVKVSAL

SMILES: Cc1cc(CO)nc2cc3c(cc12)OC(C)(C)[C@H](O)[C@H]3NCCc1ccccc1 [BP-G1, (3R,4S)-7-(hydroxymethyl)-2,2,9-trimethyl-4-(2-phenylethylamino)-3,4-dihydropyrano[2,3-g]quinolin-3-ol]
- IC50: 11.3 µM
